Data taken from patent US20250186408A1, “TREATMENT OF PHARMACORESISTANT EPILEPSY” (Katholieke Universiteit Leuven, priority 2021, published 2025).
Read-outs that look alike come from different tables or passages of the source.

Tests used:
AVPR1A = AVPR1A (Homo sapiens, UniProt P37288); test: Calcium Flux AVPR1A Agonist; format: cell-based; details: for EC50: read-out: RC50, result type EC50; for Emax: read-out: Max response
Procedure: (≤0.2% DMSO concentration). Assays were performed in 1× dye loading buffer consisting of 1× Dye (DiscoverX, Calcium No Wash^PLUS kit, Catalog No. 90-0091), 1× Additive A and 2.5 mM Probenecid in HBSS/20 mM HEPES. Probenecid was prepared fresh. Prior to testing, media was aspirated from cells and replaced with 25 μL dye loading buffer. Cells were incubated for 45 min at 37° C. and then 20 min at RT. For agonist determination, 25 μL of 2× compound in HBSS/20 mM HEPES was added using a FLIPR Tetra (MDS). […] 25 μL of 2× sample was added and cells were incubated for 30 min at RT in the dark to equilibrate plate temperature. After incubation, antagonist determination was initiated by addition of 25 μL of 1× compound with 3×EC80 agonist using FLIPR. For both agonist and antagonist formats, activity was measure on a FLIPR Tetra (MDS). Calcium mobilization was monitored for 2 min with a 5 sec baseline read.
FLIPR read—Area under the curve, was calculated for the entire 2 min read.

VEGFR2 = target: T1, VEGFR2 (Homo sapiens, UniProt P35968); test: Binding (KINOMEscan) VEGFR2 Inhibitor; details: for IC50: read-out: RC50, result type IC50; for Emax: read-out: Max response
T1 construct: purchased Eurofins DiscoverX Corporation 87-1003DR; host or cells: E. coli BL21-derived host (T7 phage) or HEK-293
T1 sequence (P35968 20-1356): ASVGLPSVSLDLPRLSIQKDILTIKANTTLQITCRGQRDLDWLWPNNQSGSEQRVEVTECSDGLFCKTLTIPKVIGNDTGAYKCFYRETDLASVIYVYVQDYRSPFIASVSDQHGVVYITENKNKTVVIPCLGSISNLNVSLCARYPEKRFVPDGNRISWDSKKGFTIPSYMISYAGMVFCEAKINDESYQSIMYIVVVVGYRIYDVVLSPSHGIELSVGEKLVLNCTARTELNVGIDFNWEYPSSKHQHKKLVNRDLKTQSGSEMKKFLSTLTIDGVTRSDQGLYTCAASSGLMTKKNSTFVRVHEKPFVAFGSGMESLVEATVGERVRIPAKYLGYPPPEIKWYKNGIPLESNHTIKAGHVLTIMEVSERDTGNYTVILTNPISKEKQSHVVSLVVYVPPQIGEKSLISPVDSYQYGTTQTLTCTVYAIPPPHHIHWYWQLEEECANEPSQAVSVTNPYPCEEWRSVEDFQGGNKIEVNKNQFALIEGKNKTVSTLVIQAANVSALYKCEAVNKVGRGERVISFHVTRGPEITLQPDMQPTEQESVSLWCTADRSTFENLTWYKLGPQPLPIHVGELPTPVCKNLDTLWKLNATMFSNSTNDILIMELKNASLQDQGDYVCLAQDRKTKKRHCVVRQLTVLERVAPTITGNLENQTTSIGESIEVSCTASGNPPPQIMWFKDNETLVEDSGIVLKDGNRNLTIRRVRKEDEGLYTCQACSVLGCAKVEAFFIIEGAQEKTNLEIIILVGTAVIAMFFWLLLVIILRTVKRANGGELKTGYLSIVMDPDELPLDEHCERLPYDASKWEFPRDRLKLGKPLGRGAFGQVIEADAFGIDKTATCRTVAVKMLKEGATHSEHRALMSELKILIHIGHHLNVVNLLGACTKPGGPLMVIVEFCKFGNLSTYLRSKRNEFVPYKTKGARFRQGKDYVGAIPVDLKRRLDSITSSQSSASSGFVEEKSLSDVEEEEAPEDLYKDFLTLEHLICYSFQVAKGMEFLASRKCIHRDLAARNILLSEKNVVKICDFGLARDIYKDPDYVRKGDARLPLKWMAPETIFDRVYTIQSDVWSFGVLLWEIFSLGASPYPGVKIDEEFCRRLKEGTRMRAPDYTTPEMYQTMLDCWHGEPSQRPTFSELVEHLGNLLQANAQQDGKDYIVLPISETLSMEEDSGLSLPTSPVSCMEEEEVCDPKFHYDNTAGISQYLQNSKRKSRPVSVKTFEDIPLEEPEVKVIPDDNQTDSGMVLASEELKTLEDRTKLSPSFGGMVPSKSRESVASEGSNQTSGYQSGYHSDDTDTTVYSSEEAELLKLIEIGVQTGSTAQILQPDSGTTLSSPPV
Procedure: (§1) For most assays, kinase-tagged T7 phage strains were grown in parallel in 24-well blocks in an E. coli host derived from the BL21 strain. E. coli were grown to log-phase and infected with T7 phage from a frozen stock (multiplicity of infection=0.4) and incubated with shaking at 32° C. until lysis (90-150 min). The lysates were centrifuged (6,000×g) and filtered (0.2 μm) to remove cell debris. The remaining kinases were produced in HEK-293 cells and subsequently tagged with DNA for qPCR detection. Streptavidin-coated magnetic beads were treated with biotinylated small molecule ligands for 30 min at RT to generate affinity resins for kinase assays. The liganded beads were blocked with excess biotin and washed with blocking buffer (SeaBlock (Pierce), 1% BSA, 0.05% Tween 20, 1 mM DTT) to remove unbound ligand and to reduce non-specific phage binding. […] All reactions were performed in polypropylene 384-well plates in a final volume of 0.02 mL. […] The beads were then re-suspended in elution buffer (1×PBS, 0.05% Tween 20, 0.5 μM non-biotinylated affinity ligand) and incubated at RT with shaking for 30 min. The kinase concentration in the eluates was measured by qPCR.
(§2) The kinase concentration in the eluates was measured by qPCR. qPCR reactions were assembled by adding 2.5 μL of kinase eluate to 7.5 μL of qPCR master mix containing 0.15 μM amplicon primers and 0.15 μM amplicon probe. The qPCR protocol consisted of a 10 min hot start at 95° C., followed by 35 cycles of 95° C. for 15 sec, 60° C. for 1 min.
(§3) Binding constants (Kds) were calculated with a standard dose-response curve using the Hill equation: […]

COX1 = target: T2, COX1 (Homo sapiens, UniProt P23219); test: Enzymatic COX1 Inhibitor; format: biochemical; details: for IC50: read-out: RC50, result type IC50; for Emax: read-out: Max response
T2 construct: purchased BPS Bioscience
T2 sequence (P23219 24-599): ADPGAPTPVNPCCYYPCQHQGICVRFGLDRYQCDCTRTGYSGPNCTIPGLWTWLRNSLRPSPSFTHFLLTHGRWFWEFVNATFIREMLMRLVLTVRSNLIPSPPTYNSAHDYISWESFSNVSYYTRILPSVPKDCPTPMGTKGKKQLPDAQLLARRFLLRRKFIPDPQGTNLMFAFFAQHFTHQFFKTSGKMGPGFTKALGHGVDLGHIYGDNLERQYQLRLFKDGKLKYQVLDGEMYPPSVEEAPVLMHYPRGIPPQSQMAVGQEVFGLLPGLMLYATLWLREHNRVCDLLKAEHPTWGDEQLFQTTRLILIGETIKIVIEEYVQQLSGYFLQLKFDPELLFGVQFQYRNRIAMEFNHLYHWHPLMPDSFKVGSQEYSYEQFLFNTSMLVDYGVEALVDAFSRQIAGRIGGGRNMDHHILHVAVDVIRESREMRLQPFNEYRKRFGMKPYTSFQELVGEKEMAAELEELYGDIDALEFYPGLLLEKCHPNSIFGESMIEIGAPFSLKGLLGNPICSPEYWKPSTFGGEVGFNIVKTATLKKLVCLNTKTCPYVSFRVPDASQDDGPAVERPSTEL
Procedure: (§4) Enzyme preparations were sourced from various vendors-AChE (R&D Systems), COX1 and COX2 (BPS Bioscience), MAOA (Sigma), PDE3A and PDE4D2 (Signal Chem). AChE: enzyme and test compound were pre-incubated for 15 min at RT before substrate addition. Acetylthiocholine and DTNB were added and incubated at RT for 30 min. Signal was detected by measuring absorbance at 405 nm. COX1 and COX2: enzyme stocks were diluted in assay buffer (40 mM Tris-HCl, 1×PBS, 0.5 mM Phenol, 0.01% Tween 20 and 10 nM Hematin) and allowed to equilibrate with compounds at RT for 30 min (binding incubation). Arachidonic acid (1.7 μM) and Ampliflu Red (2.5 μM) were prepared and dispended into a reaction plate. Plates were read immediately on a fluorimeter with the emission detection at 590 nm and excitation wavelength 544 nm. MAOA: enzyme and test compound were pre-incubated for 15 min at 37° C. before substrate addition. The reaction was initiated by addition of kynuramine and incubated at 37° C. for 30 min. The reaction was terminated by addition of NaOH. The amount of 4-hydroquinoline formed was determined through spectrofluorometric readout with the emission detection at 380 nm and excitation wavelength 310 nm. PDE3A and PDE4D2: enzyme and test compound were pre-incubated for 15 min at RT before substrate addition. cAMP substrate (at a concentration equal to EC80) was added and incubated at RT for 30 min. Enzyme reaction was terminated by addition of 9 mM IBMX. Signal was detected using the HitHunter® cAMP detection kit. Microplates were transferred to a PerkinElmer Envision™ instrument and read out as described for each assay. […] For enzyme activity assays, percentage inhibition was calculated using the following equation: […]

LCK = target: T3, LCK (Homo sapiens, UniProt P06239); test: Binding (KINOMEscan) LCK Inhibitor; details: for IC50: read-out: RC50, result type IC50; for Emax: read-out: Max response
T3 construct: purchased Eurofins DiscoverX Corporation 87-1003DR; host or cells: E. coli BL21-derived host (T7 phage) or HEK-293
T3 sequence (P06239 whole entry): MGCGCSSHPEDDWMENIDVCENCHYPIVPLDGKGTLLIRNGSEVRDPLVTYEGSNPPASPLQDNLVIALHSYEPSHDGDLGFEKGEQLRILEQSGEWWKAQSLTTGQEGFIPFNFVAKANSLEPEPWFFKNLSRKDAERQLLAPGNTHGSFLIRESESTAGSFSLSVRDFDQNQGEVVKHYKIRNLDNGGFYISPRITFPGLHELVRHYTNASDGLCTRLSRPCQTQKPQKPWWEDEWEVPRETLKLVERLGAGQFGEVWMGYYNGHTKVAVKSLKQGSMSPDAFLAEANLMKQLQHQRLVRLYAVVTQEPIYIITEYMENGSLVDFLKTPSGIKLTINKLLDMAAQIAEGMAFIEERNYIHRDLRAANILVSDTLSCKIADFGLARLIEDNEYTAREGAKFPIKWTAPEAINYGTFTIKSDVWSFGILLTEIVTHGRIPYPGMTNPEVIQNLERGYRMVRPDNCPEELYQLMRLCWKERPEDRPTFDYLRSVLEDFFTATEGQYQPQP
Procedure: as §1, §2, §3

in vivo = details: male, NMRI, mouse, ip, 300 mg/kg
Procedure: After the treatment period, blood samples were drawn from the tail veins, collected in Greiner MiniCollect K2EDTA tubes, and centrifuged twice for 5 min at 15,000 g to obtain plasma samples. Three volumes of acetonitrile were added to one volume of plasma to precipitate out the proteins. The samples were vortexed for 20 s and placed on ice. Immediately after, they were centrifuged at 5,000 g for 10 min and again at 10,000 g for 2 min. The resulting supernatants were transferred to Eppendorf tubes and centrifuged for 2 min at 10,000 g. Finally, the supernatants were collected for analysis by LC-MS/MS to determine the targeted compound concentration. Percentage recovery was determined as follows: known concentrations of the compound were spiked into the blank plasma and acetonitrile was added (3:1 ratio) to precipitate out the proteins. Samples were vortexed for 20 s and placed on ice. The resulting supernatants were isolated via centrifugation as described above. The targeted compounds were identified using LC-MS/MS to detect their characteristic ions. Plasma concentrations at each point were plotted as a function of time.
Brain samples were collected at the same time points as described for blood samples. Male NMRI mice were overdosed with dolethal via i.p. administration. Mice were perfused with 0.9% saline and brains were collected in Eppendorf tubes. Brains were weighed, whereafter 400 μL of acetonitrile was added to the samples. […] Homogenized samples were centrifuged at 5,000 g for 10 min and again at 10,000 g for 2 min. The resulting supernatants were transferred to Eppendorf tubes and centrifuged for 2 min at 10,000 g. Finally, the supernatants were collected for analysis by LC-MS/MS to determine the targeted compound concentration in the brain tissue.
The compound concentrations in mouse plasma and brain were determined by LC-MS/MS.

AChE = target: T4, AChE (Homo sapiens, UniProt P22303); test: Enzymatic AChE Inhibitor; format: biochemical; details: for IC50: read-out: RC50, result type IC50; for Emax: read-out: Max response
T4 construct: purchased R&D Systems
T4 sequence (P22303 32-614): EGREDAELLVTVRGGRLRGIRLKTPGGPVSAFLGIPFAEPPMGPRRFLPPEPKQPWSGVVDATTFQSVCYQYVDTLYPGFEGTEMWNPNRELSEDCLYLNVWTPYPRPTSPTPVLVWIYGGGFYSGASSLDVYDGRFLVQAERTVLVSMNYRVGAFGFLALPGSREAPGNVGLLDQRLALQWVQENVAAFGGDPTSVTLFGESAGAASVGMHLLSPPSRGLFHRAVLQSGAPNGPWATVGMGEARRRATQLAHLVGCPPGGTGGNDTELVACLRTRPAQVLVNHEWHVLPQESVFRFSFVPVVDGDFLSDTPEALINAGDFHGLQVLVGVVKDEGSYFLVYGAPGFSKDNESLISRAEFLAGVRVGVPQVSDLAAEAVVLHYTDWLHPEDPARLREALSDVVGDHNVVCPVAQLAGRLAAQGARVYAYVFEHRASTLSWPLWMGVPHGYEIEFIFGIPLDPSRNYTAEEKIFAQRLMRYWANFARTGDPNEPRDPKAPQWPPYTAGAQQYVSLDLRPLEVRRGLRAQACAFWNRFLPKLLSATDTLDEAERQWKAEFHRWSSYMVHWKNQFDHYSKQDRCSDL
Procedure: as §4

DRD1 = DRD1 (Homo sapiens, UniProt P21728); test: cAMP DRD1 Antagonist; details: for Emax: read-out: Max response
Chain of DRD1 (P21728 whole entry): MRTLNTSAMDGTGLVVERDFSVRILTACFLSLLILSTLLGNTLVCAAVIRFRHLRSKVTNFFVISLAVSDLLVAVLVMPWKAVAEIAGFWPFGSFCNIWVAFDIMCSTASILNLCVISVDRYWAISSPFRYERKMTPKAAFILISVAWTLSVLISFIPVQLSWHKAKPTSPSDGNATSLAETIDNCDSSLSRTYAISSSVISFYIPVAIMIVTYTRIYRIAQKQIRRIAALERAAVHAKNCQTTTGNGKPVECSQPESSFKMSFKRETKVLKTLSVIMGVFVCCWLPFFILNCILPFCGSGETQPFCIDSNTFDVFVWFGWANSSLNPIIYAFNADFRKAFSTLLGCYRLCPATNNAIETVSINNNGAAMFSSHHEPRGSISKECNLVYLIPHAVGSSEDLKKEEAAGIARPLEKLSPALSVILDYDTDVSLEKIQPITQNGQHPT
Procedure: In vitro pharmacological profiling of compounds was done against 78 functional assays for 47 common off-targets (30) by Eurofins DiscoverX Corporation (Fremont, CA, USA) using their SAFETYscan E/IC50 ELECT service (Cat Ref 87-1003DR, Safety47 Panel Dose Response). […] Compounds were tested in a range of 10 concentrations, following a 3-fold serial dilution, starting from 10 μM.
cAMP Hunter cell lines were expanded from freezer stocks. Prior to testing, cells were seeded in a total volume of 20 μL into white walled 384-well microplates and incubated at 37° C. cAMP modulation was determined using the DiscoverX HitHunter cAMP XS+ assay. For Gs agonist determination, cells were incubated with sample to induce response. For Gi agonist determination, cells were incubated with sample in the presence of EC80 forskolin to induce response. For both conditions, media was aspirated from cells and replaced with 15 μL 2:1 HBSS/10 mM HEPES:cAMP XS+ Ab reagent. Intermediate dilution of sample stocks was performed to generate 4× sample in assay buffer (containing 4×EC80 forskolin in the case of antagonist determination). 5 μL of 4× sample was added to cells and incubated at 37° C. or room temperature (RT) for 30 or 60 min. Final assay vehicle concentration was 1%. For antagonist determination, cells were pre-incubated with sample followed by agonist challenge at the EC80 concentration. Media was aspirated from cells and replaced with 10 μL 1:1 HBSS/HEPES:cAMP XS+ Ab reagent. 5 μL of 4× compound was added to the cells and incubated at 37° C. or RT for 30 min. 5 μL of 4×EC80 agonist was added to the cells and incubated at 37° C. or RT for 30 or 60 min. For Gi coupled GPCRs, EC80 forskolin was included. […] Microplates were read following signal generation with a PerkinElmer Envision™ instrument for chemiluminescent signal detection. Compound activity was analyzed using CBIS data analysis suite (ChemInnovation, CA).

Chain of AVPR1A (P37288 whole entry): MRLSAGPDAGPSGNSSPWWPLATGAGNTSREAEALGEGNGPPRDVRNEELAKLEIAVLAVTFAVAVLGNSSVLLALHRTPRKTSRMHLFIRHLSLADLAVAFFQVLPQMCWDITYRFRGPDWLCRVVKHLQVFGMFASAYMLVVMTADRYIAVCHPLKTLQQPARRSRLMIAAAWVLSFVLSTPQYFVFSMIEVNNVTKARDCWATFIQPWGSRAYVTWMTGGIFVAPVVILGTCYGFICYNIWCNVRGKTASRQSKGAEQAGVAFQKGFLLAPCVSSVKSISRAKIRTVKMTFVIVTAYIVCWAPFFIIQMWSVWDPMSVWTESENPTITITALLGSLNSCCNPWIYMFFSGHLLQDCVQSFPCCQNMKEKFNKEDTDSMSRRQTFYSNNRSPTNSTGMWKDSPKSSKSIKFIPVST

| Compound | EC50 (AVPR1A; Calcium Flux AVPR1A Agonist) [µM] | Emax (AVPR1A) [%] | IC50 (VEGFR2; Binding VEGFR2 Inhibitor) [µM] | Emax (VEGFR2) [%] | IC50 (COX1; Enzymatic COX1 Inhibitor) [µM] | Emax (COX1) [%] | IC50 (LCK; Binding LCK Inhibitor) [µM] | Emax (LCK) [%] | Cmax (in vivo; brain) [ng/g] | Cmax (in vivo; plasma) [µM] | IC50 (AChE; Enzymatic AChE Inhibitor) [µM] | Emax (AChE) [%] | IC50 (DRD1) [µM] | Emax (DRD1) [%] | Emax (AVPR1A; Calcium Flux AVPR1A Agonist) [%] | Emax (VEGFR2; Binding VEGFR2 Inhibitor) [%] | Emax (COX1; Enzymatic COX1 Inhibitor) [%] | Emax (LCK; Binding LCK Inhibitor) [%] | Emax (AChE; Enzymatic AChE Inhibitor) [%] |
| --- | --- | --- | --- | --- | --- | --- | --- | --- | --- | --- | --- | --- | --- | --- | --- | --- | --- | --- | --- |
| CC(C)(C)c1ccc(C#CC(O)c2ccccc2)cc1 (racemic) [Compound 3.3, rac-3-(4-(tert-butyl)phenyl)-1-phenylprop-2-yn-1-ol] | > 10 | 8.7 | > 10 | 0 | > 10 | 9.9 | > 10 | 0 | 96000 | 62 | > 10 | 3.8 | > 10 | 2.7 | – | – | – | – | – |
| Clc1cccc(C#Cc2n[nH]c3ncccc23)c1 [Compound 10.1, 3-((3-chlorophenyl)ethynyl)-1H-pyrazolo[3,4-b]pyridine] | > 10 | – | > 10 | – | > 10 | – | > 10 | – | 31000 | 27 | > 10 | – | > 10 | 17.2 | 7.9 | 5.4 | 0 | 0 | 1.3 |
